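Five compound concentrations were applied to cells in 96-well plates for 48 hours; endpoints were derived by simple linear interpolation of the resulting dose-response curve. At the TGI there is no net growth.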
How the values were obtained:
Assay in all cases: inhibition of tumour cell growth, NCI panel, 48 h
A498 renal = system: A498 renal
A549 NSCLC = system: A549 NSCLC
ACHN renal = system: ACHN renal
CAKI-1 renal = system: CAKI-1 renal
CCRF-CEM leukemia = system: CCRF-CEM leukemia
COLO 205 colon = system: COLO 205 colon
DLD-1 colon = system: DLD-1 colon
DMS 114 small cell lung = system: DMS 114 small cell lung
EKVX NSCLC = system: EKVX NSCLC
HCC-2998 colon = system: HCC-2998 colon
HCT-116 colon = system: HCT-116 colon
HL-60(TB) leukemia = system: HL-60(TB) leukemia
HOP-18 NSCLC = system: HOP-18 NSCLC
HOP-92 NSCLC = system: HOP-92 NSCLC
HT29 colon = system: HT29 colon
IGROV1 ovarian = system: IGROV1 ovarian
K-562 leukemia = system: K-562 leukemia
KM12 colon = system: KM12 colon
KM20L2 colon = system: KM20L2 colon
LOX IMVI melanoma = system: LOX IMVI melanoma
LXFL 529 NSCLC = system: LXFL 529 NSCLC
M14 melanoma = system: M14 melanoma
MALME-3M melanoma = system: MALME-3M melanoma
MOLT-4 leukemia = system: MOLT-4 leukemia
NCI-H226 lung = system: NCI-H226 lung
NCI-H23 lung = system: NCI-H23 lung
NCI-H460 lung = system: NCI-H460 lung
OVCAR-4 ovarian = system: OVCAR-4 ovarian
OVCAR-5 ovarian = system: OVCAR-5 ovarian
OVCAR-8 ovarian = system: OVCAR-8 ovarian
RPMI-8226 leukemia = system: RPMI-8226 leukemia
RXF 393 renal = system: RXF 393 renal
RXF-631 renal = system: RXF-631 renal
SF-268 CNS = system: SF-268 CNS
SF-295 CNS = system: SF-295 CNS
SF-539 CNS = system: SF-539 CNS
SK-MEL-2 melanoma = system: SK-MEL-2 melanoma
SK-MEL-28 melanoma = system: SK-MEL-28 melanoma
SK-MEL-5 melanoma = system: SK-MEL-5 melanoma
SN12C renal = system: SN12C renal
SNB-19 CNS = system: SNB-19 CNS
SNB-75 CNS = system: SNB-75 CNS
SNB-78 CNS = system: SNB-78 CNS
SR leukemia = system: SR leukemia
SW-620 colon = system: SW-620 colon
TK-10 renal = system: TK-10 renal
U251 CNS = system: U251 CNS
UACC-257 melanoma = system: UACC-257 melanoma
UO-31 renal = system: UO-31 renal
786-0 renal = system: 786-0 renal
DMS 273 small cell lung = system: DMS 273 small cell lung
HCT-15 colon = system: HCT-15 colon
HOP-62 NSCLC = system: HOP-62 NSCLC
M19-MEL melanoma = system: M19-MEL melanoma
NCI-H522 lung = system: NCI-H522 lung
OVCAR-3 ovarian = system: OVCAR-3 ovarian
SK-OV-3 ovarian = system: SK-OV-3 ovarian
XF 498 CNS = system: XF 498 CNS

`COc1nc2[nH]ccc2c(=O)[nH]1` was tested, and the TGI (A498 renal) was > 100 µM, the TGI (A549 NSCLC) was > 100 µM and the TGI (ACHN renal) was > 100 µM. For the same compound, the TGI (CAKI-1 renal) was > 100 µM, the TGI (CCRF-CEM leukemia) was > 100 µM and the TGI (COLO 205 colon) was > 100 µM. For the same compound, the TGI (DLD-1 colon) was > 100 µM, the TGI (DMS 114 small cell lung) was > 100 µM and the TGI (EKVX NSCLC) was > 100 µM. For the same compound, the TGI (HCC-2998 colon) was > 100 µM, the TGI (HCT-116 colon) was > 100 µM and the TGI (HL-60(TB) leukemia) was > 100 µM. For the same compound, the TGI (HOP-18 NSCLC) was > 100 µM, the TGI (HOP-92 NSCLC) was > 100 µM and the TGI (HT29 colon) was > 100 µM. The TGI (IGROV1 ovarian) was > 100 µM, the TGI (K-562 leukemia) was > 100 µM and the TGI (KM12 colon) was > 100 µM. The TGI (KM20L2 colon) was > 100 µM, the TGI (LOX IMVI melanoma) was > 100 µM and the TGI (LXFL 529 NSCLC) was > 100 µM. The TGI (M14 melanoma) was > 100 µM, the TGI (MALME-3M melanoma) was > 100 µM and the TGI (MOLT-4 leukemia) was > 100 µM. For the same compound, the TGI (NCI-H226 lung) was 9.92 µM, the TGI (NCI-H23 lung) was > 100 µM and the TGI (NCI-H460 lung) was > 100 µM. The TGI (OVCAR-4 ovarian) was > 100 µM, the TGI (OVCAR-5 ovarian) was > 100 µM and the TGI (OVCAR-8 ovarian) was > 100 µM. The TGI (RPMI-8226 leukemia) was > 100 µM, the TGI (RXF 393 renal) was > 100 µM and the TGI (RXF-631 renal) was > 100 µM. For the same compound, the TGI (SF-268 CNS) was > 100 µM, the TGI (SF-295 CNS) was > 100 µM and the TGI (SF-539 CNS) was > 100 µM. The TGI (SK-MEL-2 melanoma) was > 100 µM, the TGI (SK-MEL-28 melanoma) was > 100 µM and the TGI (SK-MEL-5 melanoma) was > 100 µM. The TGI (SN12C renal) was > 100 µM, the TGI (SNB-19 CNS) was > 100 µM and the TGI (SNB-75 CNS) was > 100 µM. For the same compound, the TGI (SNB-78 CNS) was > 100 µM, the TGI (SR leukemia) was > 100 µM and the TGI (SW-620 colon) was > 100 µM. For the same compound, the TGI (TK-10 renal) was > 100 µM, the TGI (U251 CNS) was > 100 µM and the TGI (UACC-257 melanoma) was > 100 µM. The TGI (UO-31 renal) was > 100 µM.
For `Cc1nc(-n2nc(-c3ccccc3)cc2-c2ccccc2)sc1C(=O)/C=C/c1ccc(/C=C/C(=O)c2sc(-n3nc(-c4ccccc4)cc3-c3ccccc3)nc2C)cc1`, the TGI (786-0 renal) was 33.4 µM, the TGI (A549 NSCLC) was > 100 µM and the TGI (ACHN renal) was 40.2 µM. For the same compound, the TGI (CAKI-1 renal) was 51.6 µM, the TGI (CCRF-CEM leukemia) was 96.7 µM and the TGI (COLO 205 colon) was 39.1 µM. For the same compound, the TGI (DLD-1 colon) was 44.8 µM, the TGI (DMS 114 small cell lung) was > 100 µM and the TGI (DMS 273 small cell lung) was 44.9 µM. The TGI (EKVX NSCLC) was > 100 µM, the TGI (HCC-2998 colon) was 39.3 µM and the TGI (HCT-116 colon) was 37.4 µM. The TGI (HCT-15 colon) was > 100 µM, the TGI (HL-60(TB) leukemia) was > 100 µM and the TGI (HOP-62 NSCLC) was 54.2 µM. For the same compound, the TGI (HT29 colon) was 44.8 µM, the TGI (IGROV1 ovarian) was 28.6 µM and the TGI (K-562 leukemia) was > 100 µM. It also gave a TGI (KM12 colon) of 35.8 µM, a TGI (KM20L2 colon) of 36.4 µM and a TGI (LOX IMVI melanoma) of 40.6 µM. The TGI (LXFL 529 NSCLC) was 67.3 µM, the TGI (M14 melanoma) was 36.7 µM and the TGI (M19-MEL melanoma) was 63 µM. It also gave a TGI (MALME-3M melanoma) of 40.2 µM, a TGI (MOLT-4 leukemia) of 68.6 µM and a TGI (NCI-H226 lung) of 71.2 µM. It also gave a TGI (NCI-H23 lung) of 35.3 µM, a TGI (NCI-H460 lung) of 95.7 µM and a TGI (NCI-H522 lung) of 34.4 µM. The TGI (OVCAR-3 ovarian) was 59.3 µM, the TGI (OVCAR-4 ovarian) was > 100 µM and the TGI (OVCAR-5 ovarian) was 57.5 µM. The TGI (OVCAR-8 ovarian) was > 100 µM, the TGI (RXF 393 renal) was 42.9 µM and the TGI (RXF-631 renal) was 78.9 µM. It also gave a TGI (SF-268 CNS) of 51.6 µM, a TGI (SF-295 CNS) of 51.8 µM and a TGI (SF-539 CNS) of 33.7 µM. For the same compound, the TGI (SK-MEL-2 melanoma) was 51.8 µM, the TGI (SK-MEL-28 melanoma) was 41.8 µM and the TGI (SK-OV-3 ovarian) was > 100 µM. It also gave a TGI (SN12C renal) of 43.5 µM, a TGI (SNB-19 CNS) of 42 µM and a TGI (SNB-78 CNS) of 99.8 µM. The TGI (SR leukemia) was 72.4 µM, the TGI (SW-620 colon) was > 100 µM and the TGI (TK-10 renal) was 87.6 µM. The TGI (U251 CNS) was 34.3 µM, the TGI (UACC-257 melanoma) was 45.6 µM and the TGI (UO-31 renal) was 42 µM. It also gave a TGI (XF 498 CNS) of 41.4 µM.
